Results taken from PubChem BioAssay AID1259407 (Chemical Carcinogenesis Research Information System (CCRIS), 2018).
Activity calls are given as the source filed them. The rule behind the calls is not given here.

Test system: CCRIS mutagenicity, Ames/micronucleus/aberration tests
Assay: CCRIS mutagenicity studies
[1] = Test System: AMES SALMONELLA TYPHIMURIUM, Strain/Indicator: TA98, Metabolic Activation: NONE, Method: PREINCUBATION
[2] = Test System: AMES SALMONELLA TYPHIMURIUM, Strain/Indicator: TA98, Metabolic Activation: RAT LIVER S-9, PHENOBARBITAL AND BETA-NAPHTHOFLAVONE, Method: PREINCUBATION
[3] = Test System: AMES SALMONELLA TYPHIMURIUM, Strain/Indicator: TA100, Metabolic Activation: NONE, Method: PREINCUBATION
[4] = Test System: AMES SALMONELLA TYPHIMURIUM, Strain/Indicator: TA100, Metabolic Activation: RAT LIVER S-9, PHENOBARBITAL AND BETA-NAPHTHOFLAVONE, Method: PREINCUBATION
[5] = Test System: AMES SALMONELLA TYPHIMURIUM, Strain/Indicator: TA102, Metabolic Activation: NONE, Method: PREINCUBATION
[6] = Test System: AMES SALMONELLA TYPHIMURIUM, Strain/Indicator: TA1535, Metabolic Activation: NONE, Method: PREINCUBATION
[7] = Test System: AMES SALMONELLA TYPHIMURIUM, Strain/Indicator: TA1535, Metabolic Activation: RAT LIVER S-9, PHENOBARBITAL AND BETA-NAPHTHOFLAVONE, Method: PREINCUBATION
[8] = Test System: AMES SALMONELLA TYPHIMURIUM, Strain/Indicator: TA1537, Metabolic Activation: NONE, Method: PREINCUBATION
[9] = Test System: AMES SALMONELLA TYPHIMURIUM, Strain/Indicator: TA1537, Metabolic Activation: RAT LIVER S-9, PHENOBARBITAL AND BETA-NAPHTHOFLAVONE, Method: PREINCUBATION
[10] = Test System: E.COLI, Strain/Indicator: WP2UVRA/PKM101, Metabolic Activation: NONE, Method: PREINCUBATION
[11] = Test System: E.COLI, Strain/Indicator: WP2UVRA/PKM101, Metabolic Activation: RAT LIVER S-9, PHENOBARBITAL AND BETA-NAPHTHOFLAVONE, Method: PREINCUBATION
[12] = Test System: AMES SALMONELLA TYPHIMURIUM, Strain/Indicator: TA100, Metabolic Activation: NONE, Method: STANDARD PLATE
[13] = Test System: AMES SALMONELLA TYPHIMURIUM, Strain/Indicator: TA104, Metabolic Activation: NONE, Method: PREINCUBATION

SMILES: N[C@@H](CC(=O)O)C(=O)O
- mutagenic call (End Point: In vivo micronucleus, Test System: Bone marrow erythrocytes, Species: Mouse, Strain/Sex: Crl:CD1 (ICR)/Male and female, Route: Oral): inactive; negative
- mutagenic call (Test System: AMES SALMONELLA TYPHIMURIUM, Strain/Indicator: TA97, Metabolic Activation: NONE, Method: PREINCUBATION): inactive; negative
- mutagenic call (Test System: AMES SALMONELLA TYPHIMURIUM, Strain/Indicator: TA97, Metabolic Activation: RAT, LIVER, S-9, AROCLOR 1254, Method: PREINCUBATION): inactive; negative
- mutagenic call [1]: inactive; negative
- mutagenic call [2]: inactive; negative
- mutagenic call [3]: inactive; negative
- mutagenic call [4]: inactive; negative
- mutagenic call [5]: inactive; negative
- mutagenic call (Test System: AMES SALMONELLA TYPHIMURIUM, Strain/Indicator: TA102, Metabolic Activation: RAT, LIVER, S-9, AROCLOR 1254, Method: PREINCUBATION): inactive; negative
- mutagenic call [6]: inactive; negative
- mutagenic call [7]: inactive; negative
- mutagenic call [8]: inactive; negative
- mutagenic call [9]: inactive; negative
- mutagenic call (Test System: Ames Salmonella typhimurium, Strain/Indicator: TA98, Species: None, Method: Standard plate): inactive; negative
- mutagenic call (Test System: Ames Salmonella typhimurium, Strain/Indicator: TA98, Species: Rat, Liver, S-9, Aroclor 1254 (10%), Method: Standard plate): inactive; negative
- mutagenic call (Test System: Ames Salmonella typhimurium, Strain/Indicator: TA100, Species: None, Method: Standard plate): inactive; negative
- mutagenic call (Test System: Ames Salmonella typhimurium, Strain/Indicator: TA100, Species: Rat, Liver, S-9, Aroclor 1254 (10%), Method: Standard plate): inactive; negative
- mutagenic call (Test System: Ames Salmonella typhimurium, Strain/Indicator: TA1535, Species: None, Method: Standard plate): inactive; negative
- mutagenic call (Test System: Ames Salmonella typhimurium, Strain/Indicator: TA1535, Species: Rat, Liver, S-9, Aroclor 1254 (10%), Method: Standard plate): inactive; negative
- mutagenic call (Test System: Ames Salmonella typhimurium, Strain/Indicator: TA1537, Species: None, Method: Standard plate): inactive; negative
- mutagenic call (Test System: Ames Salmonella typhimurium, Strain/Indicator: TA1537, Species: Rat, Liver, S-9, Aroclor 1254 (10%), Method: Standard plate): inactive; negative
- mutagenic call (Test System: E. coli, Strain/Indicator: WP2 uvrA, Metabolic Activation: None, Method: Standard plate): inactive; negative
- mutagenic call (Test System: E. coli, Strain/Indicator: WP2 uvrA, Metabolic Activation: Rat, Liver, S-9, Aroclor 1254 (10%), Method: Standard plate): inactive; negative
- mutagenic call [10]: inactive; negative
- mutagenic call [11]: inactive; negative

SMILES: O=NN1C(C(=O)O)CSC1C(O)C(O)C(O)C(O)CO (configuration not stated)
- mutagenic call [1]: inactive; negative
- mutagenic call (Test System: AMES SALMONELLA TYPHIMURIUM, Strain/Indicator: TA98, Metabolic Activation: NONE, Method: STANDARD PLATE): inactive; negative
- mutagenic call (Test System: AMES SALMONELLA TYPHIMURIUM, Strain/Indicator: TA98, Metabolic Activation: RAT, LIVER, S-9, AROCLOR 1254, Method: PREINCUBATION): inactive; negative
- mutagenic call (Test System: AMES SALMONELLA TYPHIMURIUM, Strain/Indicator: TA98, Metabolic Activation: RAT, LIVER, S-9, AROCLOR 1254, Method: STANDARD PLATE): inactive; negative
- mutagenic call [3]: inactive; negative
- mutagenic call [12]: inactive; negative
- mutagenic call (Test System: AMES SALMONELLA TYPHIMURIUM, Strain/Indicator: TA100, Metabolic Activation: RAT, LIVER, S-9, AROCLOR 1254, Method: PREINCUBATION): inactive; negative
- mutagenic call (Test System: AMES SALMONELLA TYPHIMURIUM, Strain/Indicator: TA100, Metabolic Activation: RAT, LIVER, S-9, AROCLOR 1254, Method: STANDARD PLATE): inactive; negative

SMILES: ClCc1ccc(Cl)cc1
- mutagenic call (End Point: In vitro chromosomal aberrations, Test System: Chinese hamster lung (CHL/IU) cells, Metabolic Activation: Rat, Liver, S9, Phenobarbital and 5,6-benzoflavone): active; positive (structural changes and ploidy). precipitation in the culture medium at
- mutagenic call [1]: inactive; negative
- mutagenic call [2]: inactive; negative
- mutagenic call [3]: inactive; negative
- mutagenic call [12]: inactive; negative
- mutagenic call [4]: inactive; negative
- mutagenic call [5]: inactive; negative
- mutagenic call (Test System: AMES SALMONELLA TYPHIMURIUM, Strain/Indicator: TA102, Metabolic Activation: RAT LIVER S-9, PHENOBARBITAL AND BETA-NAPHTHOFLAVONE, Method: PREINCUBATION): inactive; negative
- mutagenic call [13]: inactive; negative
- mutagenic call (Test System: AMES SALMONELLA TYPHIMURIUM, Strain/Indicator: TA104, Metabolic Activation: RAT LIVER S-9, PHENOBARBITAL AND BETA-NAPHTHOFLAVONE, Method: PREINCUBATION): inactive; negative
- mutagenic call [6]: inactive; negative
- mutagenic call [7]: inactive; negative
- mutagenic call [8]: inactive; negative
- mutagenic call [9]: inactive; negative
- mutagenic call [10]: inactive; negative
- mutagenic call [11]: inactive; negative
- mutagenic call (Test System: E.COLI, Strain/Indicator: WP2UVRA, Metabolic Activation: NONE, Method: PREINCUBATION): inactive; negative
- mutagenic call (Test System: E.COLI, Strain/Indicator: WP2UVRA, Metabolic Activation: RAT LIVER S-9, PHENOBARBITAL AND BETA-NAPHTHOFLAVONE, Method: PREINCUBATION): inactive; negative

SMILES: C[N+](C)(C)CCO
- mutagenic call [1]: inactive; negative
- mutagenic call (Test System: AMES SALMONELLA TYPHIMURIUM, Strain/Indicator: TA98, Metabolic Activation: RAT, LIVER, S-9, PHENOBARBITAL AND BETA-NAPHTHOFLAVONE, Method: PREINCUBATION): inactive; negative
- mutagenic call [3]: inactive; negative
- mutagenic call (Test System: AMES SALMONELLA TYPHIMURIUM, Strain/Indicator: TA100, Metabolic Activation: RAT, LIVER, S-9, PHENOBARBITAL AND BETA-NAPHTHOFLAVONE, Method: PREINCUBATION): inactive; negative
- mutagenic call [5]: inactive; negative
- mutagenic call (Test System: AMES SALMONELLA TYPHIMURIUM, Strain/Indicator: TA102, Metabolic Activation: RAT, LIVER, S-9, PHENOBARBITAL AND BETA-NAPHTHOFLAVONE, Method: PREINCUBATION): inactive; negative
- mutagenic call [13]: inactive; negative
- mutagenic call (Test System: AMES SALMONELLA TYPHIMURIUM, Strain/Indicator: TA104, Metabolic Activation: RAT, LIVER, S-9, PHENOBARBITAL AND BETA-NAPHTHOFLAVONE, Method: PREINCUBATION): inactive; negative
- mutagenic call [6]: inactive; negative
- mutagenic call (Test System: AMES SALMONELLA TYPHIMURIUM, Strain/Indicator: TA1535, Metabolic Activation: RAT, LIVER, S-9, PHENOBARBITAL AND BETA-NAPHTHOFLAVONE, Method: PREINCUBATION): inactive; negative
- mutagenic call [8]: inactive; negative
- mutagenic call (Test System: AMES SALMONELLA TYPHIMURIUM, Strain/Indicator: TA1537, Metabolic Activation: RAT, LIVER, S-9, PHENOBARBITAL AND BETA-NAPHTHOFLAVONE, Method: PREINCUBATION): inactive; negative
- mutagenic call (Test System: E. COLI, Strain/Indicator: WP2UVRA/PKM101, Metabolic Activation: NONE, Method: PREINCUBATION): inactive; negative
- mutagenic call (Test System: E. COLI, Strain/Indicator: WP2UVRA/PKM101, Metabolic Activation: RAT, LIVER, S-9, PHENOBARBITAL AND BETA-NAPHTHOFLAVONE, Method: PREINCUBATION): inactive; negative
- mutagenic call (Test System: E. COLI, Strain/Indicator: WP2UVRA, Metabolic Activation: NONE, Method: PREINCUBATION): inactive; negative
- mutagenic call (Test System: E. COLI, Strain/Indicator: WP2UVRA, Metabolic Activation: RAT, LIVER, S-9, PHENOBARBITAL AND BETA-NAPHTHOFLAVONE, Method: PREINCUBATION): inactive; negative
